Laboratory results as given in paper PMC8333425, “Discovery of a dual Ras and ARF6 inhibitor from a GPCR endocytosis screen” (Nature Communications, 2021).

Assays:
Experiment in all cases: KINOMEscan kinase binding assay
[1] = target: T1, 384 kinases from the human genome (Homo sapiens, UniProt O14757); settings: kinase CHEK1 (Entrez CHEK1)
T1 construct: purchased Eurofin/DiscoverX
Method in brief: (§1)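 Competition binding (KINOMEscan) across 384 human kinases with compound at 10 µM. Ligand binding was expressed relative to DMSO (100%) as the average of duplicates from one experiment. S(10) selectivity score was derived.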

[2] = target: T2, 384 kinases from the human genome (Homo sapiens, UniProt Q14164); settings: kinase IKK-epsilon (Entrez IKBKE)
T2 construct: purchased Eurofin/DiscoverX
Method in brief: as §1

[3] = target: T3, 384 kinases from the human genome (Homo sapiens, UniProt P22455); settings: kinase FGFR4 (Entrez FGFR4)
T3 construct: purchased Eurofin/DiscoverX
Method in brief: as §1

[4] = target: T4, 384 kinases from the human genome (Homo sapiens, UniProt Q9Y616); settings: kinase IRAK3 (Entrez IRAK3)
T4 construct: purchased Eurofin/DiscoverX
T4 sequence (Q9Y616 whole entry): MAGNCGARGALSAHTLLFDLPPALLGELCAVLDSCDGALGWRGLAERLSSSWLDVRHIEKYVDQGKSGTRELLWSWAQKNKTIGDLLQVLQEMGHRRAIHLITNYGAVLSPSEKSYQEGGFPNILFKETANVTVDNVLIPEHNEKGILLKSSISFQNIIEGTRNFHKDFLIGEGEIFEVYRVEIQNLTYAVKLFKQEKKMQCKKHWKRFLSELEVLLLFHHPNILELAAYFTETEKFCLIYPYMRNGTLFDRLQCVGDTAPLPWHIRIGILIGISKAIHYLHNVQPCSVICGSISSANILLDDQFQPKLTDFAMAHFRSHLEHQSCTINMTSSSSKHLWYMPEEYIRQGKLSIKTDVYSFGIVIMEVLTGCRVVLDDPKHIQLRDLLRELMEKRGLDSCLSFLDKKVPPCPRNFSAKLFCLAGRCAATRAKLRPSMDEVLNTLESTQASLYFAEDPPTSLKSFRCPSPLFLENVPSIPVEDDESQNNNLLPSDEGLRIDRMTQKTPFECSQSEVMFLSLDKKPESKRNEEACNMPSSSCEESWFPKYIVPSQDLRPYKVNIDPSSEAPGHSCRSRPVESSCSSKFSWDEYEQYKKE
Method in brief: as §1

[5] = target: T5, 384 kinases from the human genome (Homo sapiens, UniProt O00238); settings: kinase BMPR1B (Entrez BMPR1B)
T5 construct: purchased Eurofin/DiscoverX
Method in brief: as §1

[6] = target: T6, 384 kinases from the human genome (Homo sapiens, UniProt Q9NRM7); settings: kinase LATS2 (Entrez LATS2)
T6 construct: purchased Eurofin/DiscoverX
T6 sequence (Q9NRM7 whole entry): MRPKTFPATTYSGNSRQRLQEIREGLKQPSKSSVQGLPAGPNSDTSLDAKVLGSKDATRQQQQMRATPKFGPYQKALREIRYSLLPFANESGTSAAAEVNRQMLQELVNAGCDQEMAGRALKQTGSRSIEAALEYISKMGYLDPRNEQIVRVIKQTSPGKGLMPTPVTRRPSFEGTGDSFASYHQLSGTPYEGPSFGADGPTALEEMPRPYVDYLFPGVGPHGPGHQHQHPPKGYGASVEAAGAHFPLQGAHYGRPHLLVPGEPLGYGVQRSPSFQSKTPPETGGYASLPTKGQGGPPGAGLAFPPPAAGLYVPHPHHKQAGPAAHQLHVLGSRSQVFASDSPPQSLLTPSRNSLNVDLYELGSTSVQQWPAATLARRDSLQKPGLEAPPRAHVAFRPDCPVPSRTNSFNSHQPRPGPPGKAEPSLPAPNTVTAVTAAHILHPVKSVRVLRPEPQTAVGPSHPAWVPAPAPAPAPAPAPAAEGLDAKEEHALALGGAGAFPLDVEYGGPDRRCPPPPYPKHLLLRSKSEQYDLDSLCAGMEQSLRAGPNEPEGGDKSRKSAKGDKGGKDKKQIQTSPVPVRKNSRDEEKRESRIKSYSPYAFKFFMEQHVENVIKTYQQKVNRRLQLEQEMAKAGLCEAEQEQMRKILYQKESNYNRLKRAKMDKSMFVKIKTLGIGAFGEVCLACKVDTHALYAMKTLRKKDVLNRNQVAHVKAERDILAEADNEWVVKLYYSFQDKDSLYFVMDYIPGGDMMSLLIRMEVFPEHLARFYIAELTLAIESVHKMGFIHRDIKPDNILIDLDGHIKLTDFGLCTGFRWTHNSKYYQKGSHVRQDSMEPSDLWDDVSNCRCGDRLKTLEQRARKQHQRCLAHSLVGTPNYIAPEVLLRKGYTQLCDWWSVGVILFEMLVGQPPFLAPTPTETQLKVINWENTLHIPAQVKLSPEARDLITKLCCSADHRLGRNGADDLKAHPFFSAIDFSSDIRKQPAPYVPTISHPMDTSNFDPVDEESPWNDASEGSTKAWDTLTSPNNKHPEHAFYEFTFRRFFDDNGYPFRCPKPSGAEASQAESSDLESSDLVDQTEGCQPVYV
Method in brief: as §1

[7] = target: T7, 384 kinases from the human genome (Homo sapiens, UniProt P29317); settings: kinase EPHA2 (Entrez EPHA2)
T7 construct: purchased Eurofin/DiscoverX
T7 sequence (P29317 24-976): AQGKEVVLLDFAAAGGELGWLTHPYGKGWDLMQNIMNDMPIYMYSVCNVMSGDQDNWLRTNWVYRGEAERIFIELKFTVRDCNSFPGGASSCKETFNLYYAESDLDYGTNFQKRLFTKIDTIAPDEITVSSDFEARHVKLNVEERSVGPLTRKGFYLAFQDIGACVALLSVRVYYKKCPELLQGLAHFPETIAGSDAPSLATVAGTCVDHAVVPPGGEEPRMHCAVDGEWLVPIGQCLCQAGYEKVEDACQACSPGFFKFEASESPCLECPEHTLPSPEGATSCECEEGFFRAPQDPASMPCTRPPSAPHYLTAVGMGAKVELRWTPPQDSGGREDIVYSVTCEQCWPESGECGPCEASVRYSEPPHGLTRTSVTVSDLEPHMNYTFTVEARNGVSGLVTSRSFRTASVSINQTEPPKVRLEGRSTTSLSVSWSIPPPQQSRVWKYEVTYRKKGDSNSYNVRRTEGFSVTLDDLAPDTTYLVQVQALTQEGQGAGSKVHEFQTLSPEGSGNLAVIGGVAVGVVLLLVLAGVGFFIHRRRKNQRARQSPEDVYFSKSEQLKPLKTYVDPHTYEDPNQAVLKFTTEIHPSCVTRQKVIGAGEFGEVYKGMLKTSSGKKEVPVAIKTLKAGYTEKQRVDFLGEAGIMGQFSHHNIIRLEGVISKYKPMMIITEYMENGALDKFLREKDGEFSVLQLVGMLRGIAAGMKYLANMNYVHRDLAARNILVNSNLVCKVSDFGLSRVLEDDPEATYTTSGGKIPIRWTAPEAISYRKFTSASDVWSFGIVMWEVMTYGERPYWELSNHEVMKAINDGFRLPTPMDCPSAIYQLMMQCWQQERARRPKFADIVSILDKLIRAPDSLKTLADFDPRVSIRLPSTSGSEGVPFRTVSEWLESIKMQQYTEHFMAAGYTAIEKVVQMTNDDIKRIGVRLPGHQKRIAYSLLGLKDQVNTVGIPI
Method in brief: as §1

[8] = target: T8, 384 kinases from the human genome (Homo sapiens, UniProt Q13554); settings: kinase CAMK2B (Entrez CAMK2B)
T8 construct: purchased Eurofin/DiscoverX
Method in brief: as §1

[9] = target: T9, 384 kinases from the human genome (Homo sapiens, UniProt P54762); settings: kinase EPHB1 (Entrez EPHB1)
T9 construct: purchased Eurofin/DiscoverX
Method in brief: as §1

[10] = target: T10, 384 kinases from the human genome (Homo sapiens, UniProt P07948); settings: kinase LYN (Entrez LYN)
T10 construct: purchased Eurofin/DiscoverX
Method in brief: as §1

[11] = target: T11, 384 kinases from the human genome (Homo sapiens, UniProt P53778); settings: kinase p38-gamma (Entrez MAPK12)
T11 construct: purchased Eurofin/DiscoverX
T11 sequence (P53778 whole entry): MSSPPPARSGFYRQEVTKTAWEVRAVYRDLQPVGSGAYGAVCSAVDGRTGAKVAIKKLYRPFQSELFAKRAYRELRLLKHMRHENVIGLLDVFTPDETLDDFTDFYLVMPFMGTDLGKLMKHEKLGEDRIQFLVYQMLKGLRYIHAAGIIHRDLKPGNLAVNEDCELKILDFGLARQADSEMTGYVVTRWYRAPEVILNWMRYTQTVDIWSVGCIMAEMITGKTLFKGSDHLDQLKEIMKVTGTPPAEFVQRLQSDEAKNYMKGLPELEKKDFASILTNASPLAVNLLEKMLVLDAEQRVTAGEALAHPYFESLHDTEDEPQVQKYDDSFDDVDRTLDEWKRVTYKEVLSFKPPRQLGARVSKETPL
Method in brief: as §1

[12] = target: T12, 384 kinases from the human genome (Homo sapiens, UniProt P78356); settings: kinase PIP5K2B (Entrez PIP4K2B)
T12 construct: purchased Eurofin/DiscoverX
T12 sequence (P78356 whole entry): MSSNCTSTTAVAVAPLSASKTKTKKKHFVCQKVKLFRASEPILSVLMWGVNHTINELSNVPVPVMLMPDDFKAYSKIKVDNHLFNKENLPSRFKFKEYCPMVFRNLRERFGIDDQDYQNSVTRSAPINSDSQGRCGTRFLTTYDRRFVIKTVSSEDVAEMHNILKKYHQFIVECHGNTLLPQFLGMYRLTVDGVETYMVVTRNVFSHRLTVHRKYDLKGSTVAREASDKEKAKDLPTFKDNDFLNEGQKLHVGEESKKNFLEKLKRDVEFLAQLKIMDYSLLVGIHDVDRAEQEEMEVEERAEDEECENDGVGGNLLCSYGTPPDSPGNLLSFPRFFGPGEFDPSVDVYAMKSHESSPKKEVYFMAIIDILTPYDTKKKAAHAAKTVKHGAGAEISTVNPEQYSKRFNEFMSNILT
Method in brief: as §1

[13] = target: T13, 384 kinases from the human genome (Homo sapiens, UniProt Q6XUX3); settings: kinase RIPK5 (Entrez DSTYK)
T13 construct: purchased Eurofin/DiscoverX
Method in brief: as §1

[14] = target: T14, 384 kinases from the human genome (Homo sapiens, UniProt Q9UBF8); settings: kinase PIK4CB (Entrez PI4KB)
T14 construct: purchased Eurofin/DiscoverX
Method in brief: as §1

[15] = target: T15, 384 kinases from the human genome (Homo sapiens, UniProt Q9Y2H9); settings: kinase MAST1 (Entrez MAST1)
T15 construct: purchased Eurofin/DiscoverX
Method in brief: as §1

[16] = target: T16, 384 kinases from the human genome (Homo sapiens, UniProt Q9P289); settings: kinase MST4 (Entrez MST4)
T16 construct: purchased Eurofin/DiscoverX
T16 sequence (Q9P289 whole entry): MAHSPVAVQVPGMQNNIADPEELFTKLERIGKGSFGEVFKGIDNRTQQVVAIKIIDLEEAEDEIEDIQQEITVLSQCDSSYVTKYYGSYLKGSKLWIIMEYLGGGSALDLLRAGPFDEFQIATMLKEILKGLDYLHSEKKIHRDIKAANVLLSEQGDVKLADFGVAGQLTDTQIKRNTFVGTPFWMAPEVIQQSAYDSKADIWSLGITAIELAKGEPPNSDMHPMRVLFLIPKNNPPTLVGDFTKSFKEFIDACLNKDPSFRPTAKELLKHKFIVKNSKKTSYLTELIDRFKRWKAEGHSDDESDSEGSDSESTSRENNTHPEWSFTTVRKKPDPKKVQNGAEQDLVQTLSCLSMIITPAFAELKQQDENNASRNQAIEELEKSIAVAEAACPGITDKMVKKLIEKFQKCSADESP
Method in brief: as §1

[17] = target: T17, 384 kinases from the human genome (Homo sapiens, UniProt Q9BVS4); settings: kinase RIOK2 (Entrez RIOK2)
T17 construct: purchased Eurofin/DiscoverX
T17 sequence (Q9BVS4 whole entry): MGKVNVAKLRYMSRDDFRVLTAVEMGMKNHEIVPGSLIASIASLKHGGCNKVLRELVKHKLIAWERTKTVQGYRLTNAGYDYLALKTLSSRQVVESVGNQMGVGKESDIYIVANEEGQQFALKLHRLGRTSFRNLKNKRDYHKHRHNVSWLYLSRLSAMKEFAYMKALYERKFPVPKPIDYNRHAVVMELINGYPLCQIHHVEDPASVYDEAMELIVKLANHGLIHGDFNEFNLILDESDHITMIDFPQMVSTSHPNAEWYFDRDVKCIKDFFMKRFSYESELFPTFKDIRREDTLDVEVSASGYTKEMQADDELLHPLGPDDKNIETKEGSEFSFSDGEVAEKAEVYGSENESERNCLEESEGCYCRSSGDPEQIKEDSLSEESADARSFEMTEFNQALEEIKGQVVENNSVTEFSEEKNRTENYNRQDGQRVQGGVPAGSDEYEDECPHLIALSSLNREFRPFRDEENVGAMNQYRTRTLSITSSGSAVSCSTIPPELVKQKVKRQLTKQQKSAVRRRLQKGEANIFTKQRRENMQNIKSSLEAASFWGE
Method in brief: as §1

[18] = target: T18, 384 kinases from the human genome (Homo sapiens, UniProt P51451); settings: kinase BLK (Entrez BLK)
T18 construct: purchased Eurofin/DiscoverX
Method in brief: as §1

[19] = target: T19, 384 kinases from the human genome (Homo sapiens, UniProt Q9UIK4); settings: kinase DAPK2 (Entrez DAPK2)
T19 construct: purchased Eurofin/DiscoverX
Method in brief: as §1

[20] = target: T20, 384 kinases from the human genome (Homo sapiens, UniProt P53350); settings: kinase PLK1 (Entrez PLK1)
T20 construct: purchased Eurofin/DiscoverX
T20 sequence (P53350 whole entry): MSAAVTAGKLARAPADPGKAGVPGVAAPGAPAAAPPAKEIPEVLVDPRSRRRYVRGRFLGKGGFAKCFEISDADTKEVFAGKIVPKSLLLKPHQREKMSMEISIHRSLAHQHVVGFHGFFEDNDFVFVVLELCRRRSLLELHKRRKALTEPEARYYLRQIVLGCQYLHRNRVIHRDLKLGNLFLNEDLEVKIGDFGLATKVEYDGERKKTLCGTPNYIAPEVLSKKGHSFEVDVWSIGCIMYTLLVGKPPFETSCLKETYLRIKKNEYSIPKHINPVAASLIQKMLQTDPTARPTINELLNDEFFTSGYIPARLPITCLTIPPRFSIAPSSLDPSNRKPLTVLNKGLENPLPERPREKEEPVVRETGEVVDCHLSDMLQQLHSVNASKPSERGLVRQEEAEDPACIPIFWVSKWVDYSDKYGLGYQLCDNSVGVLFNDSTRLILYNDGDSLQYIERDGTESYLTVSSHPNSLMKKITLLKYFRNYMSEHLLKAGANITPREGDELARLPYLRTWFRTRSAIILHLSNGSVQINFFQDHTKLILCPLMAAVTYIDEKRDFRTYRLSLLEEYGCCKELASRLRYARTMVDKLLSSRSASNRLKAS
Method in brief: as §1

[21] = target: T21, 384 kinases from the human genome (Homo sapiens, UniProt Q15835); settings: kinase GRK1 (Entrez GRK1)
T21 construct: purchased Eurofin/DiscoverX
Method in brief: as §1

[22] = target: T22, 384 kinases from the human genome (Homo sapiens, UniProt P54756); settings: kinase EPHA5 (Entrez EPHA5)
T22 construct: purchased Eurofin/DiscoverX
Method in brief: as §1

[23] = target: T23, 384 kinases from the human genome (Homo sapiens, UniProt Q07912); settings: kinase TNK2 (Entrez TNK2)
T23 construct: purchased Eurofin/DiscoverX
Method in brief: as §1

[24] = target: T24, 384 kinases from the human genome (Homo sapiens, UniProt O94806); settings: kinase PRKD3 (Entrez PRKD3)
T24 construct: purchased Eurofin/DiscoverX
Method in brief: as §1

[25] = target: T25, 384 kinases from the human genome (Homo sapiens, UniProt Q13153); settings: kinase PAK1 (Entrez PAK1)
T25 construct: purchased Eurofin/DiscoverX
Method in brief: as §1

[26] = target: T26, 384 kinases from the human genome (Homo sapiens, UniProt Q8N752); settings: kinase CSNK1A1L (Entrez CSNK1A1L)
T26 construct: purchased Eurofin/DiscoverX
Method in brief: as §1

## CC(C)C(=O)N1CCN(c2ccc(NC(=O)c3cc4ccccc4o3)cc2Cl)CC1 [Compound 21]
[1]
  Percent Control: 92%
[2]
  Percent Control: 100%
[3]
  Percent Control: 91%
[4]
  Percent Control: 67%
[5]
  Percent Control: 82%
[6]
  Percent Control: 98%
[7]
  Percent Control: 40%
[8]
  Percent Control: 100%
[9]
  Percent Control: 94%
[10]
  Percent Control: 100%
[11]
  Percent Control: 100%
[12]
  Percent Control: 83%
[13]
  Percent Control: 78%
[14]
  Percent Control: 74%
[15]
  Percent Control: 100%
[16]
  Percent Control: 100%
[17]
  Percent Control: 100%
[18]
  Percent Control: 78%
[19]
  Percent Control: 100%
[20]
  Percent Control: 77%
[21]
  Percent Control: 94%
[22]
  Percent Control: 100%
[23]
  Percent Control: 68%
[24]
  Percent Control: 98%
[25]
  Percent Control: 92%
[26]
  Percent Control: 98%
